Assay results published in USRE47193E1, “Selectively substituted quinoline compounds” (EISAI R&D MANAGEMENT CO., LTD., priority 2013, dated 2019).

What was measured:
Human TLR7/8 = assay: Human PBMC cell-based assay, TLR7/8 stimulus (RNA-Ig), cytokine ELISA; conditions: primary human PBMC assay, TLR7/8 potency; ligand not given; read-out: Human PBMCs IC50
In short: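 The agonist was RNA-Ig, a U1 snRNA-derived 26-mer RNA (2.5 μM) complexed with RNA-cross-reacting anti-ssDNA mAb (1:25 or 1 ug/ml), added after 30 min compound pre-incubation (0.1% DMSO). Density-gradient PBMC from healthy donors, 2×10^5/well, were stimulated 20 h at 37 °C; cytokines quantified by ELISA.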

Mouse Splenocytes = assay: Mouse spleen cell-based assay (R848, IL-6 ELISA); conditions: BALB/c spleen cells, 370 nM R848
Method: Mouse Spleen cell-based assay. Spleens were harvested from female BALB/c mice (Jackson Labs, Bar Harbor, Me.) euthanized by CO2. A single cell suspension was obtained by passing spleens through a 40 μm an nylon cell strainer. Cells were washed twice with 50 ml PBS (Mediatech, Inc., Manassas, Va.) and red blood cells were lysed in 5 ml RBC Lysis buffer (eBioscience, Inc., San Diego, Calif.) for 5 minutes at room temperature. Cells were washed twice more in PBS and finally resuspended in supplemented RPMI-1640 at 2.5×10^6 cells/ml. Cells were plated at 100 μl/well (2.5×10^5 cells/well) in 96-well tissue culture treated plates (Falcon). Serial dilutions of compounds solubilized in 100% DMSO were added in triplicate to cells to yield a final concentration of 0.1% DMSO. Cells were incubated with compound for 30 minutes at 37° C., 5% CO2 before adding 100 μl/well of 740 nM R848 (Resiquimod; GLSynthesis, Worcester, Mass.) in complete media for a final concentration of 370 nM R848. Cells were incubated for 20 hours at 37° C., 5% CO2. Culture supernatants were collected, and levels of IL-6 were assessed by standard ELISA procedure according to the manufacturer's recommended protocol (BD Biosciences, Inc., San Diego, Calif.).

mouse TLR7 = target: T1, mouse TLR7 (Mus musculus, UniProt P58681); assay: Short-term in vivo (STIV) assay: oral dosing, R848 s.c., plasma IL-6; parameters: female BALB/c mice (Jackson Labs, Bar Harbor, Me.) were dosed by oral gavage; tissue Jackson Labs; host or cells: living female BALB/c mice; plasma IL-6 after s.c. R848
T1 sequence (P58681 27-1050): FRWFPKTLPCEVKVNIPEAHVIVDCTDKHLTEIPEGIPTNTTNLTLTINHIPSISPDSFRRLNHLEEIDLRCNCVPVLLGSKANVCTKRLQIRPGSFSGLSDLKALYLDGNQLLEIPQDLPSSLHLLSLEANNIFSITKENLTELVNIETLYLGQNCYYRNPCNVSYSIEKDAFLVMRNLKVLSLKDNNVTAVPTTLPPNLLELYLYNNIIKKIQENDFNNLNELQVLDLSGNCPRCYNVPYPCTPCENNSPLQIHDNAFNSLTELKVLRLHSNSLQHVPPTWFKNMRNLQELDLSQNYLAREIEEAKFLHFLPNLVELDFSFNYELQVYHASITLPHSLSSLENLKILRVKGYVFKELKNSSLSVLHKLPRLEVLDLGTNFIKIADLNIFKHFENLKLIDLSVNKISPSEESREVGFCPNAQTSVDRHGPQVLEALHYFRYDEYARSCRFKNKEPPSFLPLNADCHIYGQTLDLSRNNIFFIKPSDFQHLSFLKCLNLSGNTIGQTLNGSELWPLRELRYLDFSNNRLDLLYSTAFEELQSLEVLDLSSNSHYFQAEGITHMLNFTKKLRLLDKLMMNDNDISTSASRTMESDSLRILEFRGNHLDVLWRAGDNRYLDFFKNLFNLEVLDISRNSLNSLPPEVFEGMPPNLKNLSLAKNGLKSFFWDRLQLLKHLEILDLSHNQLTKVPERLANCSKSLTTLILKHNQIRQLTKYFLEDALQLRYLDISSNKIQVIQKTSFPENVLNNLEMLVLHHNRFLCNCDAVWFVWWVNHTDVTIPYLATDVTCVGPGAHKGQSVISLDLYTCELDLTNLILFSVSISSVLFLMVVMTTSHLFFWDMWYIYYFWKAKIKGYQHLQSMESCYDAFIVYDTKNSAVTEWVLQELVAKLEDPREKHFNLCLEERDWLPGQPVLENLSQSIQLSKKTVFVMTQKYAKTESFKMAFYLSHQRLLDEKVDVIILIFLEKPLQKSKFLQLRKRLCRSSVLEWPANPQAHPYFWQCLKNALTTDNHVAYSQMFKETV
In short: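 Female BALB/c mice (6–8 weeks) dosed orally with compound in 0.5% aqueous methyl-cellulose at 33, 100 or 300 mg/kg; at various times afterwards given 15 ug R848 s.c. to stimulate TLR7. Plasma IL-6 measured by ELISA to gauge potency and duration of action.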

CC1CN(c2ccc(C#N)c3ncccc23)CC(CN2CCC(N3CCOCC3)CC2)O1 (centres unmarked) [ER-890093]
IC50 (Human TLR7/8): 22 nM
IC50 (Mouse Splenocytes; Mus musculus, Splenocyte): 88 nM
% Suppression vs. Vehicle (mouse TLR7; 3 h, 100 mg/kg): 92%
% Suppression vs. Vehicle (mouse TLR7; 6 h, 33 mg/kg): 92%
% Suppression vs. Vehicle (mouse TLR7; 6 h, 100 mg/kg): 95%
% Suppression vs. Vehicle (mouse TLR7; 13 h, 33 mg/kg): 98%
% Suppression vs. Vehicle (mouse TLR7; 13 h, 100 mg/kg): 100%

CC1CN(c2ccc(C#N)c3ncccc23)CC(CN2CCC(N3CCCCC3)C2)O1.Cl.Cl (centres unmarked) [ER-890311]
IC50 (Mouse Splenocytes): 428 nM
% Suppression vs. Vehicle (mouse TLR7; 3 h, 33 mg/kg): 88%
% Suppression vs. Vehicle (mouse TLR7; 19 h, 3.67 mg/kg): 0%
% Suppression vs. Vehicle (mouse TLR7; 19 h, 11 mg/kg): 0%
% Suppression vs. Vehicle (mouse TLR7; 19 h, 33 mg/kg): 0%

CC1CN(c2ccc(C#N)c3ncccc23)CC(CN2CCN(C)C(C)(C)C2)O1 (centres unmarked) [ER-894656]
IC50 (Human TLR7/8): 7 nM
IC50 (Mouse Splenocytes; Mus musculus, Splenocyte): 23 nM

C[C@@H]1CN(c2ccc(C#N)c3ncccc23)C[C@H](CN2CCC(N)CC2)O1 [ER-888070]
IC50 (Human TLR7/8): 3 nM
IC50 (Mouse Splenocytes; Mus musculus, Splenocyte): 76 nM
% Suppression vs. Vehicle (mouse TLR7; 6 h, 33 mg/kg): 88%
% Suppression vs. Vehicle (mouse TLR7; 6 h, 100 mg/kg): 100%
% Suppression vs. Vehicle (mouse TLR7; 6 h, 300 mg/kg): 100%
% Suppression vs. Vehicle (mouse TLR7; 19 h, 33 mg/kg): 70%
% Suppression vs. Vehicle (mouse TLR7; 19 h, 100 mg/kg): 90%
% Suppression vs. Vehicle (mouse TLR7; 19 h, 300 mg/kg): 99%

C[C@@H]1CN(c2ccc(C#N)c3ncccc23)C[C@H](CN2CCNC(C)(C)C2)O1 [ER-894655]
IC50 (Human TLR7/8): 5 nM
IC50 (Mouse Splenocytes; Mus musculus, Splenocyte): 84 nM

CCNC(=O)C1CCN(CC2CN(c3ccc(C#N)c4ncccc34)CC(C)O2)CC1 (centres unmarked) [ER-895204]
IC50 (Human TLR7/8): 23 nM
IC50 (Mouse Splenocytes; Mus musculus, Splenocyte): 51 nM
% Suppression vs. Vehicle (mouse TLR7; 6 h, 33 mg/kg): 98%
% Suppression vs. Vehicle (mouse TLR7; 13 h, 33 mg/kg): 22%
% Suppression vs. Vehicle (mouse TLR7; 13 h, 100 mg/kg): 43%
% Suppression vs. Vehicle (mouse TLR7; 13 h, 300 mg/kg): 99%
% Suppression vs. Vehicle (mouse TLR7; 24 h, 33 mg/kg): 39%
% Suppression vs. Vehicle (mouse TLR7; 24 h, 100 mg/kg): 39%
% Suppression vs. Vehicle (mouse TLR7; 24 h, 300 mg/kg): 78%

CC1CN(c2ccc(C#N)c3ncccc23)CC(CN2CC(N3CCCCC3)C2)O1 (centres unmarked) [ER-889470]
IC50 (Human TLR7/8): 12 nM
IC50 (Mouse Splenocytes; Mus musculus, Splenocyte): 152 nM
% Suppression vs. Vehicle (mouse TLR7; 3 h, 33 mg/kg): 100%
% Suppression vs. Vehicle (mouse TLR7; 3 h, 100 mg/kg): 98%
% Suppression vs. Vehicle (mouse TLR7; 6 h, 33 mg/kg): 96%
% Suppression vs. Vehicle (mouse TLR7; 6 h, 100 mg/kg): 100%
% Suppression vs. Vehicle (mouse TLR7; 19 h, 100 mg/kg): 78%

CC1CN(c2ccc(C#N)c3ncccc23)CC(CN2CCNCC2C)O1 (centres unmarked) [ER-887268]
IC50 (Human TLR7/8): 5 nM
IC50 (Mouse Splenocytes; Mus musculus, Splenocyte): 2120 nM
% Suppression vs. Vehicle (mouse TLR7; 6 h, 11 mg/kg): 80%
% Suppression vs. Vehicle (mouse TLR7; 6 h, 33 mg/kg): 98%
% Suppression vs. Vehicle (mouse TLR7; 6 h, 100 mg/kg): 99%
% Suppression vs. Vehicle (mouse TLR7; 19 h, 11 mg/kg): 25%
% Suppression vs. Vehicle (mouse TLR7; 19 h, 33 mg/kg): 63%
% Suppression vs. Vehicle (mouse TLR7; 19 h, 100 mg/kg): 95%

C[C@@H]1CN(c2ccc(C#N)c3ncccc23)C[C@H](CN2CCN(C)[C@@H](C)C2)O1 [ER-890831]
IC50 (Human TLR7/8): 1 nM
IC50 (Mouse Splenocytes): 170 nM

C[C@@H]1CN(c2ccc(C#N)c3ncccc23)C[C@H](CN2CCC(N3CCCC3)CC2)O1 [ER-888480]
IC50 (Human TLR7/8): 1 nM
IC50 (Mouse Splenocytes): 87 nM
% Suppression vs. Vehicle (mouse TLR7; 6 h, 11 mg/kg): 85%
% Suppression vs. Vehicle (mouse TLR7; 6 h, 33 mg/kg): 100%
% Suppression vs. Vehicle (mouse TLR7; 6 h, 100 mg/kg): 100%
% Suppression vs. Vehicle (mouse TLR7; 19 h, 11 mg/kg): 63%
% Suppression vs. Vehicle (mouse TLR7; 19 h, 33 mg/kg): 89%
% Suppression vs. Vehicle (mouse TLR7; 19 h, 100 mg/kg): 98%

CC1CN(c2ccc(C#N)c3ncccc23)CC(CN2CC(N3CCCC3)C2)O1 (centres unmarked) [ER-889469]
IC50 (Human TLR7/8): 13 nM
IC50 (Mouse Splenocytes; Mus musculus, Splenocyte): 97 nM
% Suppression vs. Vehicle (mouse TLR7; 3 h, 33 mg/kg): 100%
% Suppression vs. Vehicle (mouse TLR7; 3 h, 100 mg/kg): 100%
% Suppression vs. Vehicle (mouse TLR7; 6 h, 33 mg/kg): 100%
% Suppression vs. Vehicle (mouse TLR7; 6 h, 100 mg/kg): 100%
% Suppression vs. Vehicle (mouse TLR7; 19 h, 100 mg/kg): 73%

CC1CN(c2ccc(C#N)c3ncccc23)CC(COc2ncccn2)O1 (centres unmarked) [ER-895325]
IC50 (Human TLR7/8): 26 nM
IC50 (Mouse Splenocytes; Mus musculus, Splenocyte): 120 nM

C[C@@H]1CN(c2ccc(C#N)c3ncccc23)C[C@H](CN2CC[C@H](N3CCCC3)C2)O1 [ER-893881]
IC50 (Human TLR7/8): 9 nM
IC50 (Mouse Splenocytes; Mus musculus, Splenocyte): 270 nM
% Suppression vs. Vehicle (mouse TLR7; 3 h, 33 mg/kg): 95%
% Suppression vs. Vehicle (mouse TLR7; 6 h, 33 mg/kg): 82%
% Suppression vs. Vehicle (mouse TLR7; 6 h, 100 mg/kg): 99%
% Suppression vs. Vehicle (mouse TLR7; 13 h, 33 mg/kg): 0%
% Suppression vs. Vehicle (mouse TLR7; 13 h, 100 mg/kg): 19%

CC1CN(c2ccc(C#N)c3ncccc23)CC(CN2CCC(NS(C)(=O)=O)CC2)O1 (centres unmarked) [ER-893948]
IC50 (Human TLR7/8): 150 nM
IC50 (Mouse Splenocytes; Mus musculus, Splenocyte): 420 nM

CC(=O)NC1CN(C[C@H]2CN(c3ccc(C#N)c4ncccc34)C[C@@H](C)O2)C1 [ER-894152]
IC50 (Human TLR7/8): 175 nM
IC50 (Mouse Splenocytes; Mus musculus, Splenocyte): 660 nM

C[C@@H]1CN(c2ccc(C#N)c3ncccc23)C[C@H](CN2CCCN(C)CC2)O1 [ER-889601]
IC50 (Mouse Splenocytes): 179 nM
% Suppression vs. Vehicle (mouse TLR7; 3 h, 100 mg/kg): 96%
% Suppression vs. Vehicle (mouse TLR7; 6 h, 33 mg/kg): 95%
% Suppression vs. Vehicle (mouse TLR7; 6 h, 100 mg/kg): 90%
% Suppression vs. Vehicle (mouse TLR7; 19 h, 100 mg/kg): 96%
